Results on 17 compounds are retold here after patent publication US12291518B2, “Thyroid hormone receptor agonists and use thereof” (Eccogene Inc., priority 2020, dated 2025).

Assay [1] deals with T1, THR beta-LBD (Homo sapiens, UniProt P10828).
T1 construct: THR beta-LBD (the final concentration is 0.5 nM) was added to the 384-well assay plate; purchased Invitrogen PV4686
T1 sequence (P10828 217-461 limits assumed): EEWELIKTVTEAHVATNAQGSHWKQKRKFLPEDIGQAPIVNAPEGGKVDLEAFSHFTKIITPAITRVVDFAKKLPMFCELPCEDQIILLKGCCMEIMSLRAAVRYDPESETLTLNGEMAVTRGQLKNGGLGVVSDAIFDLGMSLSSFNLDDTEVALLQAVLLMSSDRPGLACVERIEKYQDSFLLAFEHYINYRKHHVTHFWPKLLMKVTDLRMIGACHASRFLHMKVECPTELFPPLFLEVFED
The experiment in a line: THR-β Coactivator Peptide Recruitment Assay (LanthaScreen TR-FRET). It counts as biochemical. The gist of the method: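 Agonist-driven coactivator recruitment read as a 520/495 nm TR-FRET emission ratio after 2 h at room temperature. Final concentrations: THR beta-LBD 0.5 nM, fluorescein-SRC2-2 peptide 0.1 nM, terbium anti-GST antibody 2 nM. EC50 from four-parameter dose-response fitting.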
(Time-resolved FRET reads energy transfer from a long-lived donor to a nearby acceptor.)

In assay [2] the target is T2, THR alpha-LBD (Homo sapiens, UniProt P10827).
T2 construct: except that THR alpha-LBD of a final concentration 0.25 nM was used; purchased Invitrogen PV4687
T2 sequence (P10827 163-410 isoform P10827-2 limits assumed, other chains not shown): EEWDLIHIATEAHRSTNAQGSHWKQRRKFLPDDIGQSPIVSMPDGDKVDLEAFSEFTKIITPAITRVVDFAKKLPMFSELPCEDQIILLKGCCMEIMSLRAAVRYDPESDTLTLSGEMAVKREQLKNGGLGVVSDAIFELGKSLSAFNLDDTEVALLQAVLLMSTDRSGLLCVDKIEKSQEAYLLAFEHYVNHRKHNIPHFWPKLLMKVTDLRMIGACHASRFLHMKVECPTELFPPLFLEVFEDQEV
In words: THR-α Coactivator Peptide Recruitment Assay (LanthaScreen TR-FRET). It counts as biochemical. The essentials:
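TR-FRET coactivator recruitment with THR alpha-LBD at 0.25 nM final, Fluorescein-SRC2-2 peptide 0.1 nM and Tb-labeled anti-GST antibody 2 nM; 2 h incubation at room temperature. 520/495 nm emission ratio fitted to a four-parameter sigmoidal curve to give EC50.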

Where [3] appears, read: TR-FRET coactivator recruitment, THR beta-LBD 0.5 nM.
Setting [4] is: TR-FRET coactivator recruitment, THR beta-LBD 0.5 nM, read-out: THRβ EC50.
[5] abbreviates: TR-FRET coactivator recruitment, THR alpha-LBD 0.25 nM.
[6] abbreviates: TR-FRET coactivator recruitment, THR alpha-LBD 0.25 nM, read-out: THRα EC50.

Where two headings read alike, the source gives them in different places.

Take `O=C(C1CC1)N1CC(NS(=O)(=O)c2cc(Oc3c(Cl)cc(-n4nc(C(F)F)c(=O)[nH]c4=O)cc3Cl)ccc2O)C1` [Compound 52, N-(1-(cyclopropanecarbonyl)azetidin-3-yl)-5-(2,6-dichloro-4-(6-(difluoromethyl)-3,5-dioxo-4,5-dihydro-1,2,4-triazin-2(3H)-yl)phenoxy)-2-hydroxybenzenesulfonamide]: the “THRβ Emax” value in assay [1] (setting [3]) is recorded as “B (75~90)”. Also, the EC50 was 20 to 100 nM in assay [1] (setting [4]) and more than 1000 nM in assay [2] (setting [6]). Besides, the “THRα Emax” value in assay [2] (setting [5]) is “B (40~85)”.
As to `O=c1[nH]c(=O)n(-c2cc(Cl)c(Oc3cc(S(=O)(=O)NC[C@H]4C[C@@H](O)C4)c(O)cn3)c(Cl)c2)nc1C(F)F` [Compound 134, 2-(2,6-dichloro-4-(6-(difluoromethyl)-3,5-dioxo-4,5-dihydro-1,2,4-triazin-2(3H)-yl)phenoxy)-5-hydroxy-N-(((1s,3s)-3-hydroxycyclobutyl)methyl)pyridine-4-sulfonamide], in assay [1] (setting [3]), the “THRβ Emax” value was “B (75~90)”. Besides, the EC50 in assay [1] (setting [4]) is 20 to 100 nM; in assay [2] (setting [6]), more than 1000 nM. Also, the “THRα Emax” value in assay [2] (setting [5]) is “B (40~85)”.
As to `N#CC1CC(N[S@SP3](=O)(=O)c2cc(Oc3c(Cl)cc(-n4nc(C(F)F)c(=O)[nH]c4=O)cc3Cl)ccc2O)C1` (centres unmarked) [Compound 26, N-(3-cyanocyclobutyl)-5-[2,6-dichloro-4-[6-(difluoromethyl)-3,5-dioxo-1,2,4-triazin-2-yl]phenoxy]-2-hydroxy-benzenesulfonamide], the concentration for a half-maximal effect (EC50) in assay [1] is less than 2 nM; in assay [2], 2 to 200 nM. Further, the “THRβ Emax” value in assay [1] (setting [3]) is reported as “A (90~110)”. Also, the “THRα Emax” value in assay [2] (setting [5]) is on record as “A (85~110)”.
Consider `CC(C)(O)CNS(=O)(=O)c1cc(Oc2c(Cl)cc(-n3nc(C(F)F)c(=O)[nH]c3=O)cc2Cl)ncc1O` [Compound 137, 2-(2,6-dichloro-4-(6-(difluoromethyl)-3,5-dioxo-4,5-dihydro-1,2,4-triazin-2(3H)-yl)phenoxy)-5-hydroxy-N-(2-hydroxy-2-methylpropyl)pyridine-4-sulfonamide], for which the “THRβ Emax” value in assay [1] (setting [3]) is reported as “C (<75)”. Besides, the EC50 in assay [1] (setting [4]) is 20 to 100 nM; in assay [2] (setting [6]), more than 1000 nM. The “THRα Emax” value in assay [2] (setting [5]) is recorded as “B (40~85)”.
Consider `O=c1[nH]c(=O)n(-c2cc(Cl)c(Oc3ccc(O)c(S(=O)(=O)NC[C@H]4C[C@@H](O)C4)c3)c(Cl)c2)nc1C(F)F` [Compound 44, 5-(2,6-dichloro-4-(6-(difluoromethyl)-3,5-dioxo-4,5-dihydro-1,2,4-triazin-2(3H)-yl)phenoxy)-2-hydroxy-N-(((1s,3s)-3-hydroxycyclobutyl)methyl)benzenesulfonamide], for which the “THRβ Emax” value in assay [1] (setting [3]) is “B (75~90)”. In addition, the EC50 in assay [1] (setting [4]) was 2 to 20 nM; in assay [2] (setting [6]), 2 to 200 nM. Besides, the “THRα Emax” value in assay [2] (setting [5]) was “A (85~110)”.
`C[C@@H](CO)NS(=O)(=O)c1cc(Oc2c(Cl)cc(-n3nc(C(F)F)c(=O)[nH]c3=O)cc2Cl)ccc1O` [Compound 41, (S)-5-(2,6-dichloro-4-(6-(difluoromethyl)-3,5-dioxo-4,5-dihydro-1,2,4-triazin-2(3H)-yl)phenoxy)-2-hydroxy-N-(1-hydroxypropan-2-yl)benzenesulfonamide]: in assay [1] (setting [3]), the “THRβ Emax” value was “B (75~90)”. Besides, the EC50 in assay [1] (setting [4]) is less than 2 nM; in assay [2] (setting [6]) it was 2 to 200 nM. The “THRα Emax” value in assay [2] (setting [5]) is “A (85~110)”.
Taken in the same sequence, the figures for `O=c1[nH]c(=O)n(-c2cc(Cl)c(Oc3cc(S(=O)(=O)NCC(F)F)c(O)cn3)c(Cl)c2)nc1C(F)F` [Compound 111, 2-(2,6-dichloro-4-(6-(difluoromethyl)-3,5-dioxo-4,5-dihydro-1,2,4-triazin-2(3H)-yl)phenoxy)-N-(2,2-difluoroethyl)-5-hydroxypyridine-4-sulfonamide] were “A (90~110)”, less than 2 nM, 2 to 200 nM and “A (85~110)”.
With `O=C(NC1CCC1)C1(NS(=O)(=O)c2cc(Oc3c(Cl)cc(-n4nc(C(F)F)c(=O)[nH]c4=O)cc3Cl)ccc2O)CC1` [Compound 89, N-cyclobutyl-1-((5-(2,6-dichloro-4-(6-(difluoromethyl)-3,5-dioxo-4,5-dihydro-1,2,4-triazin-2(3H)-yl)phenoxy)-2-hydroxyphenyl)sulfonamido)cyclopropane-1-carboxamide], the “THRβ Emax” value in assay [1] (setting [3]) is recorded as “B (75~90)”. Moreover, the results for the EC50 in assay [1] (setting [4]) and in assay [2] (setting [6]) were less than 2 nM and 2 to 200 nM, respectively. Besides, the “THRα Emax” value in assay [2] (setting [5]) is reported as “A (85~110)”.
In the case of `CN(C)C(=O)N1CC(NS(=O)(=O)c2cc(Oc3c(Cl)cc(-n4nc(C(F)F)c(=O)[nH]c4=O)cc3Cl)ccc2O)C1` [Compound 53, 3-((5-(2,6-dichloro-4-(6-(difluoromethyl)-3,5-dioxo-4,5-dihydro-1,2,4-triazin-2(3H)-yl)phenoxy)-2-hydroxyphenyl)sulfonamido)-N,N-dimethylazetidine-1-carboxamide], in assay [1] (setting [3]), the “THRβ Emax” value is listed as “B (75~90)”. The EC50 in assay [1] (setting [4]) was 2 to 20 nM; in assay [2] (setting [6]) it was more than 1000 nM. In assay [2] (setting [5]), the “THRα Emax” value is listed as “B (40~85)”.
For the compound `N#Cc1nn(-c2cc(Cl)c(Oc3cc(S(=O)(=O)NC4CCC4)c(O)cn3)c(Cl)c2)c(=O)[nH]c1=O` [Compound 150], the “THRβ Emax” value in assay [1] (setting [3]) was “A (90~110)”. In addition, the figures for the concentration giving a half-maximal response (EC50) in assay [1] (setting [4]) and in assay [2] (setting [6]) were 2 to 20 nM and 2 to 200 nM, respectively. Moreover, the “THRα Emax” value in assay [2] (setting [5]) was “A (85~110)”.
On to `Cc1nn(-c2cc(Cl)c(Oc3cc(S(=O)(=O)N[C@H]4CCOC4)c(O)cn3)c(Cl)c2)c(=O)[nH]c1=O` [Compound 164, (S)-2-(2,6-dichloro-4-(6-methyl-3,5-dioxo-4,5-dihydro-1,2,4-triazin-2(3H)-yl)phenoxy)-5-hydroxy-N-(tetrahydrofuran-3-yl)pyridine-4-sulfonamide], for which the “THRβ Emax” value in assay [1] (setting [3]) is recorded as “B (75~90)”. Besides, the 50% effective concentration (EC50) in assay [1] (setting [4]) lay within 20 to 100 nM; in assay [2] (setting [6]), 200 to 1000 nM. Further, the “THRα Emax” value in assay [2] (setting [5]) was “B (40~85)”.
In the case of `COCC1(NS(=O)(=O)c2cc(Oc3c(Cl)cc(-n4nc(C(F)F)c(=O)[nH]c4=O)cc3Cl)ncc2O)CC1` [Compound 103, 2-(2,6-dichloro-4-(6-(difluoromethyl)-3,5-dioxo-4,5-dihydro-1,2,4-triazin-2(3H)-yl)phenoxy)-5-hydroxy-N-(1-(methoxymethyl)cyclopropyl)pyridine-4-sulfonamide], the “THRβ Emax” value in assay [1] (setting [3]) is “C (<75)”. Further, the EC50 in assay [1] (setting [4]) was 2 to 20 nM; in assay [2] (setting [6]) it was more than 1000 nM. Further, in assay [2] (setting [5]), the “THRα Emax” value was “B (40~85)”.
Taken in the same sequence, the figures for `CS(=O)(=O)c1cc(Oc2c(Cl)cc(-n3nc(C#N)c(=O)[nH]c3=O)cc2Cl)ncc1O` [Compound 147, 2-[3,5-dichloro-4-[(5-hydroxy-4-methylsulfonyl-2-pyridyl)oxy]phenyl]-3,5-dioxo-1,2,4-triazine-6-carbonitrile] were “A (90~110)”, 20 to 100 nM, 200 to 1000 nM and “B (40~85)”.
Taken in the same sequence, the figures for `CCNS(=O)(=O)c1cc(Oc2c(Cl)cc(-n3nc(C(F)F)c(=O)[nH]c3=O)cc2Cl)ncc1O` [Compound 112, 2-(2,6-dichloro-4-(6-(difluoromethyl)-3,5-dioxo-4,5-dihydro-1,2,4-triazin-2(3H)-yl)phenoxy)-N-ethyl-5-hydroxypyridine-4-sulfonamide] were “A (90~110)”, less than 2 nM, 2 to 200 nM and “A (85~110)”.
Consider `N#CC12CC(NS(=O)(=O)c3cc(Oc4c(Cl)cc(-n5nc(C(F)F)c(=O)[nH]c5=O)cc4Cl)ccc3O)(C1)C2` [Compound 79, N-(3-cyanobicyclo[1.1.1]pentan-1-yl)-5-(2,6-dichloro-4-(6-(difluoromethyl)-3,5-dioxo-4,5-dihydro-1,2,4-triazin-2 (3H)-yl)phenoxy)-2-hydroxybenzenesulfonamide], for which the “THRβ Emax” value in assay [1] (setting [3]) was “B (75~90)”. Moreover, the EC50 is less than 2 nM in assay [1] (setting [4]) and 2 to 200 nM in assay [2] (setting [6]). For the same compound, the “THRα Emax” value in assay [2] (setting [5]) is on record as “A (85~110)”.
Taken in the same sequence, the figures for `O=C(CNS(=O)(=O)c1cc(Oc2c(Cl)cc(-n3nc(C(F)F)c(=O)[nH]c3=O)cc2Cl)ncc1O)NC1CC1` [Compound 120, N-cyclopropyl-2-((2-(2,6-dichloro-4-(6-(difluoromethyl)-3,5-dioxo-4,5-dihydro-1,2,4-triazin-2(3H)-yl)phenoxy)-5-hydroxypyridine)-4-sulfonamido)acetamide] were “C (<75)”, more than 100 nM, more than 1000 nM and “C (<40)”.
The matching figures for `CS(=O)(=O)NC1CN(S(=O)(=O)c2cc(Oc3c(Cl)cc(-n4nc(C(F)F)c(=O)[nH]c4=O)cc3Cl)ccc2O)C1` [Compound 73, N-[l-[5-[2,6-dichloro-4-[6-(difluoromethyl)-3,5-dioxo-1,2,4-triazin-2-yl]phenoxy]-2-hydroxy-phenyl]sulfonylazetidin-3-yl] methane sulfonamide]: “C (<75)”, 2 to 20 nM, 2 to 200 nM and “B (40~85)”.

The term EC50 denotes the concentration needed to bring the measured effect to its halfway point.
